Assay [1] deals with Human castration resistant prostate cancer cell line LNCaP clone FGC. As to the kind of experiment: Cell growth inhibition experiment (CellTiter-Glo), LNCaP clone FGC. It is filed as cell-based. To be noted: Homo sapiens, 120 h, LNCaP clone FGC cells treated with the compound for 5 days. The method, then:
(§1) Human castration resistant prostate cancer cell line 22Rv1 and LNCaP clone FGC (22Rv1 cell line was from ATCC, CRL-2505, LNCaP clone FGC cell line was purchased from Cell Bank of the Chinese Academy of Sciences) were cultured with RPMI 1640 medium (Gibco, available from Life Technologies Corporation, 22400-089) containing 10% fetal bovine serum (Gibco, available from Life Technologies, 10099-141) and 1% antibiotics (penicillin and streptomycin, available from Life Technologies Corporation, 10378016) in a CO2 cell incubator (37° C., 5% CO2). In the cell growth inhibition experiment, 22Rv1 and LNCaP clone FGC cells in exponential growth phase were seeded on a 96-well plate (purchased from Corning Company, 3599) with a volume of 150 μL/well and a cell density of 1,500 cells/well. After seeded, the plate was placed in a CO2 incubator to incubate overnight to allow the cells to adhere. On the next day, 50 μL of a compound at different concentrations diluted in 3-fold gradient or DMSO were added in a 96-well plate containing the cells. The final concentration of the compound ranges from 0.3 to 10000 nM, and the final concentration of DMSO is 0.05% as control group. The cells were treated by the compound for 5 days. Cell viability was measured using CellTiter-Glo reagent (purchased from Promega, G7572): the cell treated with the compound for 5 days was added with CellTiter-Glo reagent at 40 μL/well, incubated at room temperature for 10 min, transferred to a white 96-well plate (OptiPlate-96, purchased from PerkinElmer, 605299) by 70 μL. Subsequently, the luminescence signal was detected using a multifunctional microplate reader EnVision (purchased from PerkinElmer) at a wavelength of 400-700 nm. The data was analyzed by using GraphPad Prism 5.0 software to obtain IC50.

Assay [2] has as its target T1, histone acetyltransferase p300 (Homo sapiens, UniProt Q09472).
T1 construct: purchased BPS Corporation 50071
T1 sequence (Q09472 1284-1673 limits assumed): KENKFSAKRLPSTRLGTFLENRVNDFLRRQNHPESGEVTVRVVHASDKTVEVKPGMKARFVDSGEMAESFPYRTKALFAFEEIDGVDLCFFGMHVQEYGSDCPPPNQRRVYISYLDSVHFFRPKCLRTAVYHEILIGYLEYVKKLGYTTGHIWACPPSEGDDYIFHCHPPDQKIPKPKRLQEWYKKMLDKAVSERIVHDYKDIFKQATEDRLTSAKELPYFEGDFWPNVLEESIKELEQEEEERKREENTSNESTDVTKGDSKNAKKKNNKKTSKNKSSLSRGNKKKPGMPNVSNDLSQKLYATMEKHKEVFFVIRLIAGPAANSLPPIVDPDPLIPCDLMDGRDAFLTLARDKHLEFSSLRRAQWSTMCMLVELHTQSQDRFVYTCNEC
As to the kind of experiment: Histone acetyltransferase (p300) activity assay (radioisotope, [3H]-Ac-CoA). The format is biochemical. To be noted: p300 0.05 nM; histone peptide 600 nM, [3H]-Ac-CoA 250 nM; 60 min at room temperature; read-out: Inhibition rate IC50. An outline of the steps:
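p300 (0.05 nM final) was preincubated 15 min with compound (0.25–5000 nM final), then reacted 60 min at room temperature with histone peptide (600 nM) and [3H]-Ac-CoA (250 nM). The reaction was stopped with cold Ac-CoA, and peptide-bound radioactivity was captured on Flashplate and counted to derive IC50.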

The subject of assay [3] is Human castration resistant prostate cancer cell line 22Rv1. As to the kind of experiment: Cell growth inhibition experiment (CellTiter-Glo), 22Rv1. It is filed as cell-based. Conditions: Homo sapiens, 120 h, 22Rv1 cells treated with the compound for 5 days. How it is done:
as §1
In general terms: ATP-based viability assays read luminescence as a measure of living cells.

In assay [4] the test system is human mantle cell lymphoma (MCL) cell line MAVER-1. Description: Cell growth inhibition experiment (CellTiter-Glo), MAVER-1. It is filed as cell-based. Conditions: Homo sapiens, Maver1, 120 h, MAVER-1 cells treated with the compound for 5 days. How it is done: The human mantle cell lymphoma (MCL) cell line MAVER-1 (from ATCC, CRL-3008) was cultured with RPMI 1640 medium (Gibco, available from Life Technologies Corporation, 22400-089) containing […] (Gibco, available from Life Technologies, 10099-141) and 1% antibiotics (penicillin and streptomycin, available from Life Technologies Corporation, 10378016) in a CO2 cell incubator (37° C., 5% CO2). In the cell growth inhibition experiment, MAVER-1 cells in exponential growth phase were seeded on a 96-well plate (purchased from Corning Company, 3599) in a volume of 100 μL/well and a cell density of 1*10E5 cells/well. After seeded, the plate was placed in a CO2 incubator to culture for 1 h. 100 μL of a compound at different concentrations diluted in 3-fold gradient or DMSO were added in a 96-well plate containing the cells. The final concentration of the compound ranges from 0.3 to 10000 nM, and the final concentration of DMSO is 0.05% as control group. The cells were treated with the compound for 5 days. Cell viability was measured using CellTiter-Glo reagent (purchased from Promega, G7572): the cells treated with the compound for 5 days was added with CellTiter-Glo reagent at 20 μL/well, incubated at room temperature for 10 min, transferred to a white 96-well plate (OptiPlate-96, purchased from PerkinElmer, 605299) by 80 μL. Subsequently, the luminescence signal was detected by using a multifunctional microplate reader EnVision (purchased from PerkinElmer) at a wavelength of 400-700 nm. The data was analyzed by using GraphPad Prism 5.0 software to obtain IC50.

A word on the IC50: it is the point on the concentration scale where inhibition reaches its midpoint.

As to `CNC(=O)Nc1ccc2c(c1)CC[C@@]21OC(=O)N(CC(=O)N2Cc3ccc(F)cc3CC[C@@H]2C2CC2)C1=O` [SYY-B026-2], the IC50 in assay [1] came to 132 nM; in assay [2] it was 18 nM; in assay [3], 358 nM; in assay [4] it was 254 nM.

Take `CNC(=O)Nc1ccc2c(c1)CC[C@@]21OC(=O)N(CC(=O)N2Cc3ccccc3CC[C@H]2C(F)(F)F)C1=O` [SYY-B027-2]: the IC50 in assay [1] came out at 14 nM; in assay [2], 3.1 nM; in assay [3] it was 23 nM; in assay [4] it was 13 nM.

For `CNC(=O)Nc1ccc2c(c1)CC[C@]21OC(=O)N(CC(=O)N2Cc3cc(F)ccc3OC[C@H]2C2CC2)C1=O` [SYY-B029-1], the concentration for half-maximal inhibition (IC50) in assay [1] is 82 nM; in assay [2] it was 4.1 nM; in assay [3], 146 nM; in assay [4], 66 nM.

With `CNC(=O)Nc1ccc2c(c1)CC[C@]21OC(=O)N(CC(=O)N2Cc3ccc(F)cc3CC[C@H]2C(F)(F)F)C1=O` [SYY-B031-1], the half-maximal inhibitory concentration (IC50) in assay [1] was determined as 91 nM; in assay [2], 1.8 nM; in assay [3] it was 210 nM; in assay [4] it was 61 nM.

Turning to `CNC(=O)Nc1ccc2c(c1)CC[C@@]21OC(=O)N(CC(=O)N2Cc3ccc(F)cc3CC[C@H]2C(F)(F)F)C1=O` [SYY-B031-2], the IC50 in assay [1] is 66 nM; in assay [2], 1.9 nM; in assay [3] it was 23 nM; in assay [4], 18 nM.

The record behind these values is patent US12172989B2, “Histone acetyltransferase (HAT) inhibitor and use thereof” (SHANGHAI INSTITUTE OF MATERIA MEDICA, CHINESE ACADEMY OF …, priority 2018, dated 2024).
